According to patent US11642369B2, “Method for enhancing expression of antioxidant in epidermis” (J-Network, Inc., priority 2020, dated 2023):

Key:
Diameter of vesicles = format: physicochemical; settings: vesicles self-formed in a 2% aqueous solution
Procedure: Sample 62 was added to a medium in the form of refined vesicles. The refined vesicles were prepared in the following manner. […] Among the vesicles obtained by this preparation method, 97.3% had diameters in a range of 20 to 40 nm. In general, for example, the average diameters of vesicles self-formed in a 2% aqueous solution of GDM12 and a 2% aqueous solution of GDS23 are both about 140 nm.

glutathione = assay: Expression of antioxidant protein: total glutathione per protein quantity, glutathione reductase recycling method; format: cell-based, human; settings: NHEM, GDS23 500 to 4000 μM, 24 hours; control 100%; FIG. 6
Procedure: After samples were prepared using normal human epidermal melanocytes, the quantity of glutathione as an antioxidant protein in cells was checked.
Sample 5 is a control (no GDS23 added). Samples 6 to 9 are different from one another in the amount of GDS23. • Sample 5: Control (N.C.) • Sample 6: GDS23 (500 μM) • Sample 7: GDS23 (1000 μM) • Sample 8: GDS23 (2000 μM) • Sample 9: GDS23 (4000 μM)
Thereafter, for each sample, the protein quantity in epidermal melanocytes and the quantity of total glutathione (GSH+GSSG) were determined by a glutathione reductase recycling method, using an assay kit (TaKaRa BCA Protein Assay Kit: from Takara Bio Inc.). The total quantity of glutathione per protein quantity was obtained from the protein quantity and the total quantity of glutathione determined for each sample, and then an increased ratio for each sample was calculated when an increased ratio for the control was assumed as 100%.

PPARG = assay: Expression of oxidative stress response gene PPARG, quantitative real-time PCR; format: cell-based, human; settings: NHEM, GDS23 500, 1000, 2000 μM, 6 hours; mRNA corrected with GAPDH, control 100%; FIG. 2
Procedure: (§1) After samples were prepared using normal human epidermal melanocytes, RNA was extracted, and expression and amplification of genes of each of target substances (Nrf-2, PPARG, NQO-1, CAT, and HMOX1) were checked by real-time PCR. PPARG is the genetic code of the protein PPARγ and is one of oxidative stress response genes.
(§2) Sample 1 is a control (no GDS23 added). Samples 2 to 4 are different from one another in the amount of GDS23. • Sample 1: Control (N.C.) • Sample 2: GDS23 (500 μM) • Sample 3: GDS23 (1000 μM) • Sample 4: GDS23 (2000 μM)
(§3) Thereafter, RNA was extracted from the cultured cells for each sample. Reverse transcription of the extracted RNA was performed to generate cDNA, and the quantity of mRNA of each target substance was determined by quantitative real-time PCR expression analysis. GAPDH (glyceraldehyde-3-phosphate dehydrogenase) was used as an internal standard. In the analysis, the mRNA expression level of each target substance was corrected with a value of the expression level of GAPDH as the internal standard in the same sample, and thereafter the correction value for each sample was calculated, assuming the correction value for the control as 100%.

HMOX1 = assay: Expression of antioxidant enzyme HMOX1, quantitative real-time PCR; format: cell-based, human; settings: NHEM, GDS23 500, 1000, 2000 μM, 6 hours; mRNA corrected with GAPDH, control 100%; FIG. 5
Procedure: as §1, §2, §3

CAT = assay: Expression of antioxidant enzyme CAT, quantitative real-time PCR; format: cell-based, human; settings: NHEM, GDS23 500, 1000 μM (Samples 1 to 3), 6 hours; mRNA corrected with GAPDH, control 100%; FIG. 4
Procedure: as §1, §2, §3

NQO-1 = assay: Expression of antioxidant enzyme NQO-1, quantitative real-time PCR; format: cell-based, human; settings: NHEM, GDS23 500, 1000, 2000 μM, 6 hours; mRNA corrected with GAPDH, control 100%; FIG. 3
Procedure: as §1, §2, §3

Nrf-2 = assay: Expression of oxidative stress response gene Nrf-2, quantitative real-time PCR; format: cell-based, human; settings: NHEM, GDS23 500, 1000, 2000 μM, 6 hours; mRNA corrected with GAPDH, control 100%; FIG. 1
Procedure: as §1, §2, §3

For PEG-12 glycerol dimyristate [GDM12], the “average diameters of vesicles” value (Diameter of vesicles) was “about 140 nm”.

In the case of PEG-23 glycerol distearate [GDS23], the “total quantity of glutathione per protein quantity” value (glutathione) is reported as “promotes production of glutathione”, the “expression level of PPARG” value (PPARG) is reported as “enhances expression” and the “expression level of HMOX1” value (HMOX1) is reported as “Enhancement of HMOX1”. The “expression level of CAT” value (CAT) was “enhancement of CAT”, the “expression level of NQO-1” value (NQO-1) was “enhancement of NQO-1” and the “average diameters of vesicles” value (Diameter of vesicles) was “about 140 nm”. For the same substance, the “expression level of Nrf-2” value (Nrf-2) was “enhances expression”.
